How the values were obtained:
[1] = Repeated intravitreal injection toxicology/toxicokinetics over nine months in cynomolgus monkeys; format: in vivo
Experimental: Preclinical studies in monkeys were performed to assess the safety and pharmacology of pegcetacoplan when injected intravitreally. Intravitreally administered pegcetacoplan in cynomolgus monkeys is distributed into the blood stream then further distributed and/or slowly eliminated from the body.

[2] = Pharmacokinetic profile of a single intravitreal dose in monkeys; format: in vivo; conditions: single intravitreal dose 10 mg/eye in both eyes
[3] = system: patients with wet AMD; assay: Phase 1b open label single ascending dose clinical trial, intravitreal injection; format: in vivo, human
Experimental: In some embodiments a dose for intravitreal injection of a compstatin analog (e.g., comprising two compstatin analog moieties and a PEG having a molecular weight of about 40 kD) is 5 mg-20 mg. In some embodiments the dose is 10 mg. In some embodiments the dose is 10 mg, 11 mg, 12 mg, 13 mg, 14 mg, 15 mg, 16 mg, 17 mg, 18 mg, 19 mg, or 20 mg. In certain particular embodiments the dose is 15 mg. In some embodiments, any of the afore-mentioned doses is administered by intravitreal injection in a volume of between 90 and 110 microliters, e.g., in a volume of 100 microliters. In some embodiments, any of the afore-mentioned doses is administered by intravitreal injection using a 27, 28, 29, or 30 gauge needle. […] In certain embodiments a combination of dose and needle gauge that allows administration by IVT injection in 10 seconds or less is selected. In certain embodiments a combination of dose and needle that allows administration of the dose by IVT injection in 5-6 seconds, or less, is used.
A Phase 1 open label, single ascending dose clinical trial of pegcetacoplan in patients with wet AMD and receiving anti-VEGF therapy (specifically, Lucentis®, Eylea® or Avastin®), was initiated to assess safety, tolerability and PK of pegcetacoplan. In this trial, patients receive a single dose of pegcetacoplan by intravitreal injection followed by 113 days of monitoring. […]

[4] = system: patients with GA; assay: Phase 2 randomized sham-controlled clinical trial in GA: change in GA lesion size; format: in vivo, human; conditions: 15 mg intravitreal monthly or every other month for 12 months vs sham
Experimental: A randomized, single-masked, sham-controlled clinical trial of pegcetacoplan in patients with GA was conducted. 246 patients aged ≥50 years were enrolled in the trial.
Patients were randomized in a 2:2:1:1 manner to receive 15 mg pegcetacoplan (APL-2) monthly, 15 mg pegcetacoplan every other month, sham injection monthly or sham injection every other month. Patients in the pegcetacoplan arms received a dose of 15 mg of pegcetacoplan, injected into the vitreous humor in a 0.1 cc volume, monthly or every other month for 12 months followed by six months of monitoring after the end of treatment. In the sham-injection cohorts, patients received a simulated injection. The safety, tolerability, PK, and evidence of activity of multiple intravitreal injections of pegcetacoplan in patients with GA in at least one eye were assessed. The primary efficacy endpoint was change in GA lesion size from baseline to month 12. […] The adverse event profile is depicted in FIG. 3. (See also Liao et al., Ophthalmology 127:186-195 (2020).)

[5] = system: patients with GA; assay: Post hoc OCT analysis of Phase 2 trial: progression outside GA lesions (large drusen to iRORA/cRORA, iRORA to cRORA); format: in vivo, human; conditions: for reduction in the risk of progression to cRORA compared with sham: 12 months
Experimental: Post hoc analysis was also conducted to assess disease progression outside of GA lesions. Participants in the study (n=246) were categorized into PM (n=86), EOM (n=79), and sham (n=81) categories. Eyes with missed injections and those that developed exudative AMD (whereupon pegcetacoplan treatment was discontinued) were excluded. […] Masked readers evaluated OCT scans outside a 500-micron perimeter from the GA border adhering to classification described in Sadda et al., Ophthalmology 125:537-548 (2018)). […] SD-OCT images obtained at baseline, Month 6, and Month 12 (using the Zeiss Cirrus or 156 Heidelberg Spectralis) using 7-line raster scans (30×5, 240 μm spacing, 7 sections, ART set to 25, 1536 A-scans) and volume scans (20×20; 49 sections, 120 μm spacing, ART set to 16, 512 A-scans) were graded following the CAM criteria independently by two masked readers at the Doheny Image Reading and Research Lab (DIRRL). A senior reader (and member of the CAM group) reviewed all questionable cases flagged by the readers and also adjudicated any discrepancies between graders in order to yield a single consensus result for each case.
Main outcome measures included assessments at baseline, Month 6 and Month 12 of: a) progression from large drusen (≥40 microns height) to incomplete/complete RPE and outer retina atrophy (iRORA and/or cRORA) and b) progression from iRORA to cRORA. Specifically, the endpoints for each treatment group were: proportion of study eyes with at least one iRORA at baseline that progressed to cRORA at 6 and 12 months, and proportion of individual baseline iRORA lesions that progressed to cRORA at 6 and 12 months.
Baseline characteristics were summarized using descriptive statistics. Continuous variables, such as GA lesion size, were summarized using the number of observations, mean, standard deviation, median, minimum, and maximum. Categorical variables, such as the presence of iRORA lesion(s) at baseline, were summarized using counts and percentages. The progression of iRORA to cRORA was summarized at Months 6 and 12 at both the study eye and lesion level. For the study-eye-level summaries, the subset of eyes with at least one iRORA lesion at baseline was included. If at least one iRORA lesion was present at baseline progressed to cRORA during follow-up, the eye was counted as having progressed. The proportion of study eyes with progression was compared between each pegcetacoplan group and the sham control group using a Pearson chi-square test. P values <0.05 were considered statistically significant. Risk ratios and their corresponding 95% confidence intervals were calculated as the proportion that progressed from iRORA to cRORA in the pegcetacoplan group divided by the proportion in the sham group. For the lesion-level summaries of progression, each iRORA lesion present at baseline was assessed separately for progression to a cRORA lesion; the proportion of lesions that progressed was compared between each pegcetacoplan group and the sham control group using descriptive statistics (counts and percentages).

Poly(oxy-1,2-ethanediyl), α-hydro-ω-hydroxy-, 15,15′-diester with N-acetyl-L-isoleucyl-L-cysteinyl-L-valyl-1-methyl-L-tryptophyl-L-glutaminyl-L-α-aspartyl-L-tryptophylglycyl-L-alanyl-L-histidyl-L-arginyl-L-cysteinyl-L-threonyl-2-[2-(2-aminoethoxy)ethoxy]acetyl-N^6-carboxy-L-lysinamide cyclic (2->12)-(disulfide) [pegcetacoplan]
intraocular or serum accumulation over multiple injections ([1]; doses up to 24.8 mg/eye in 5% dextrose, 50 or 100 μL/eye): little intraocular or serum accumulation | full toxicological review (ophthalmological assessment, SD-OCT, electroretinography, tonometry, histopathology) ([1]; repeated intravitreal injections over nine months, doses up to 24.8 mg/eye): no evidence of pegcetacoplan-mediated changes | vitreal half-life [2]: approximately 3.2 days | apparent half-life of serum concentrations ([2]; serum): 10.4 days | post-dose day until which serum concentrations increased ([2]; serum): 7 days | serious adverse events ([3]; initial nine patients, single intravitreal dose 5, 10 or 20 mg): no serious adverse events were reported | tolerability ([3]; single intravitreal dose 5 mg, 10 mg, 20 mg in 100 microliters): well tolerated | rate of GA lesion growth (change in GA lesion size from baseline to month 12) [4]: reduced rate of lesion growth | reduction in the risk of progression to cRORA compared with sham ([5]; every other month, lesion level): 40% | reduction in the risk of progression to cRORA compared with sham ([5]; every other month, study-eye level): 30% | reduction in the risk of progression to cRORA compared with sham ([5]; monthly, lesion level): 41% | reduction in the risk of progression to cRORA compared with sham ([5]; monthly, study-eye level): 39% | Relative risk of progression from iRORA to cRORA vs sham (95% CI) ([5]; Month 6, PEOM, lesion level data): 0.51 (0.30-0.87) | Relative risk of progression from iRORA to cRORA vs sham (95% CI) ([5]; Month 6, PEOM, study-eye level): 0.76 (0.45-1.29) | Relative risk of progression from iRORA to cRORA vs sham (95% CI) ([5]; Month 6, PM, lesion level data): 0.53 (0.24-1.14) | Relative risk of progression from iRORA to cRORA vs sham (95% CI) ([5]; Month 6, PM, study-eye level): 0.52 (0.23-1.18) | progression from large drusen to iRORA/cRORA ([5]; Month 12, 15 mg monthly (PM)): 22.6% | Relative risk of progression from iRORA to cRORA vs sham (95% CI) ([5]; Month 12, PEOM, lesion level data): 0.60 (0.43-0.82) | Relative risk of progression from iRORA to cRORA vs sham (95% CI) ([5]; Month 12, PEOM, study-eye level): 0.70 (0.50-0.98) | Relative risk of progression from iRORA to cRORA vs sham (95% CI) ([5]; Month 12, PM, lesion level data): 0.59 (0.36-0.97) | Relative risk of progression from iRORA to cRORA vs sham (95% CI) ([5]; Month 12, PM, study-eye level): 0.61 (0.37-1.00) | progression events from large drusen to iRORA/cRORA vs sham (in words) ([5]; Month 12, monthly): relatively fewer progression events | rate of progression from nascent GA to GA compared to sham controls (in words) ([5]; intravitreal injections monthly or every other month): lower rate of progression from nascent GA to GA | rate of progression of iRORA lesions to cRORA ([5]; month 6, every other month (PEOM), lesion level): 20.0% | progression from iRORA to cRORA, proportion of study eyes ([5]; month 6, every other month (PEOM), study-eye level): 40.6% | rate of progression of iRORA lesions to cRORA ([5]; month 6, monthly (PM), lesion level): 20.7% | progression from iRORA to cRORA, proportion of study eyes ([5]; month 6, monthly (PM), study-eye level): 27.8% | rate of progression of iRORA lesions to cRORA ([5]; month 12, every other month (EOM), lesion level): 38.4% | progression from iRORA to cRORA, proportion of study eyes ([5]; month 12, every other month (PEOM), study-eye level): 57.6% | rate of progression of iRORA lesions to cRORA ([5]; month 12, monthly (PM), lesion level): 37.9% | progression from iRORA to cRORA, proportion of study eyes ([5]; month 12, monthly (PM), study-eye level): 50.0% | rate of progression from iRORA to cRORA compared to sham group (in words) ([5]; monthly or every other month): lower rate of progression from iRORA to cRORA

— patent US20230381269A1, “METHODS OF TREATING EYE DISORDERS” (Apellis Pharmaceuticals, Inc., priority 2020, published 2023)
